How the values were obtained:
Assay type in all cases: functional
Rattus norvegicus [1] = organism: Rattus norvegicus; test: % stimulation of cyclic AMP production in homogenates of rat corpus striatum pre-incubated with 10 uM of NCA and 0 uM of DA
Rattus norvegicus [2] = organism: Rattus norvegicus; test: % stimulation of cyclic AMP production in homogenates of rat corpus striatum pre-incubated with 0 uM of NCA and 50 uM of DA
Rattus norvegicus [3] = organism: Rattus norvegicus; test: % inhibition of cyclic AMP production in homogenates of rat corpus striatum pre-incubated with 0 uM of NCA and 0 uM of DA
Rattus norvegicus [4] = organism: Rattus norvegicus; test: % stimulation of cyclic AMP production in homogenates of rat corpus striatum preincubated with 30 uM of NCA and 0 uM of DA
Rattus norvegicus [5] = organism: Rattus norvegicus; test: % stimulation of cyclic AMP production in homogenates of rat corpus striatum pre-incubated with 0 uM of NCA and 0 uM of DA
Rattus norvegicus [6] = organism: Rattus norvegicus; test: % stimulation of cyclic AMP production in homogenates of rat corpus striatum pre-incubated with 30 uM of NCA and 50 uM of DA
Rattus norvegicus [7] = organism: Rattus norvegicus; test: % inhibition of cyclic AMP production in homogenates of rat corpus striatum pre-incubated with 30 uM of NCA and 50 uM of DA
Rattus norvegicus [8] = organism: Rattus norvegicus; test: % inhibition of cyclic AMP production in homogenates of rat corpus striatum pre-incubated with 0 uM of NCA and 50 uM of DA
Rattus norvegicus [9] = organism: Rattus norvegicus; test: % inhibition of cyclic AMP production in homogenates of rat corpus striatum pre-incubated with 10 uM of NCA and 0 uM of DA
Rattus norvegicus [10] = organism: Rattus norvegicus; test: % inhibition of cyclic AMP production in homogenates of rat corpus striatum pre-incubated with 30 uM of NCA and 0 uM of DA
Rattus norvegicus [11] = organism: Rattus norvegicus; test: % stimulation of cyclic AMP production in homogenates of rat corpus striatum pre-incubated with 75 uM of NCA and 0 uM of DA
Rattus norvegicus [12] = organism: Rattus norvegicus; test: % inhibition of cyclic AMP production in homogenates of rat corpus striatum pre-incubated with 75 uM of NCA and 0 uM of DA

Oc1ccc2c(c1O)-c1cccc3c1[C@@H](C2)N(CCCl)CC3
Stimulation (Rattus norvegicus [1]): 83.9%
Stimulation (Rattus norvegicus [2]): 98%
inhibition (Rattus norvegicus [3]): 0%
Stimulation (Rattus norvegicus [4]): 43.9%
Stimulation (Rattus norvegicus [5]): 100%
Stimulation (Rattus norvegicus [6]): 103%
inhibition (Rattus norvegicus [7]): 3%
inhibition (Rattus norvegicus [8]): 2%
inhibition (Rattus norvegicus [9]): 16%
inhibition (Rattus norvegicus [10]): 56%
Stimulation (Rattus norvegicus [11]): 8.1%
inhibition (Rattus norvegicus [12]): 92%
